Columns and labels:
Panc-10.05 = test: Cell viability assay (resazurin), Panc-10.05; format: cell-based; settings: Homo sapiens, Panc1005, 72-144 hr
Description: (§1) Different cell lines such as pancreatic, (MIA PaCa-2; ATCC®CRL-1420™ & and Panc-1; CRL-1469™), liver carcinoma (HepG2; ATCC® HB-8065™), lung epithelial carcinoma (A549; ATCC® CCL-185™) and others were seeded in their respective medium (DMEM, Cat #10569044, MEM, Cat #41090036; RPMI, Cat #22400089; all with 10% FBS, Gibco, ThermoFisher) at a cell count of 3000 cells per 100 μl per well in a 96 well edge plate (167425; ThermoFisher). Cells were allowed to grow at 37° C. for 24 hr in 5% CO2 (culture conditions) in a Nuaire incubator (humidified). Serially diluted compounds (100 μl) were added to the culture plate 24 hr later and the cultures were further incubated in culture conditions for specified time depending on doubling time of specific cell line (ranging from 72-144 hr). Experiment was terminated at the completion of incubation time with the drug by replacing the medium with 100 μl of 1 mM of resazurin (R7017; Sigma) prepared in respective culture medium and the plates were further incubated in culture conditions for 4 hr. Fluorescence was then measured using a multimodal plate reader (Biotek Synergy Neo) at an excitation wavelength of 535 nm and emission wavelength of 590 nm to obtain relative fluorescence units. Data analysis was done by subtracting the background fluorescence (only medium blank) value from each reading and then normalizing with the vehicle control (DMSO treated cells) to obtain percent survival/proliferation. Percent survival at different doses was used to calculate IC50 by fitting the curve to the “four-parameter variable slope logistic model” using Prism Graph Pad.

THP1 = test: Cell viability assay (resazurin), THP1; format: cell-based; settings: Homo sapiens, THP-1, 72-144 hr
Description: as §1

A549 = test: Cell viability assay (resazurin), A549; format: cell-based; settings: Homo sapiens, 72-144 hr
Description: as §1

ALK 5 = target: T1, ALK 5 (Homo sapiens, UniProt P36897); test: In vitro kinase assay (ALK5 IC50, LanthaScreen Terbium labeled TR-FRET); format: biochemical; settings: TGF-β kinase 6 nM, ATP 10 μM, read-out: Enzyme Activity ALK 5 IC50
T1 sequence (P36897 34-503): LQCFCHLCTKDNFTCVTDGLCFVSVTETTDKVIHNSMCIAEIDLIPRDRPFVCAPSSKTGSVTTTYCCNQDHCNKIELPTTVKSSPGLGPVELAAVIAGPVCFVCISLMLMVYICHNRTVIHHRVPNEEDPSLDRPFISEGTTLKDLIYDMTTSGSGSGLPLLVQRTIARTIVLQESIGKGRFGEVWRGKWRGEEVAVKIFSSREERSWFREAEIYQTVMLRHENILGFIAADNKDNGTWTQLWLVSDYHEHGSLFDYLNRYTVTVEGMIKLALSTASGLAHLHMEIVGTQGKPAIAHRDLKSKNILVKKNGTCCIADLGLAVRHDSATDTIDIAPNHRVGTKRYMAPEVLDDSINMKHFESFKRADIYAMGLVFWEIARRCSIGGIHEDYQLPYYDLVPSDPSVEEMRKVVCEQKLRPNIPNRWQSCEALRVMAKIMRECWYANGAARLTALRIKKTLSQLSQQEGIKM
Procedure, shortened: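 LanthaScreen Tb TR-FRET: ALK5 (6 nM) preincubated 10 min with 3-fold diluted compounds, then 10 μM ATP and 200 nM fluorescent PolyGT substrate added for 1 h at room temperature. Stopped with EDTA/Tb antibody; 520/495 nm emission read. IC50 from four-parameter fit versus DMSO and no-enzyme controls.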

HepG2 = test: Cell viability assay (resazurin), HepG2; format: cell-based; settings: Homo sapiens, 72-144 hr
Description: as §1

mouse splenocytes = test: Mouse splenocyte viability assay (CD3e/CD28 activated, resazurin); format: cell-based; settings: CD3e/CD28 activated Balb/c splenocytes, 72 hr
Description: IC50 values of compounds for determining viability in CD3e/CD28 activated mouse splenocytes isolated from Balb/c mice cultured in RPMI, Cat #22400089; with 10% FBS, Gibco, ThermoFisher). Mouse splenocytes (2×10^5 cells/well) were activated with Anti-mouse CD3e (2.5 μg/ml, coated overnight at 4° C.; Cat #14-0032-82, eBioscience) and then incubated with serial dilutions of compounds (3 fold, 8 point dose response starting at 30 μM) for 30 min at 37° C., 5% CO2 in an incubator (cell culture conditions) prior to treating them with Anti-mouse CD28 (0.1 μg/ml soluble; Cat #16-0281-82, eBiosciences). Splenocytes were further incubated under cell culture conditions for 72 hr following which experiment was terminated by replacing the medium with 100 μl of 1 mM of resazurin (R7017; Sigma) prepared in respective culture medium and the plates were further incubated in culture conditions for 4 hr. Fluorescence was then measured using a multimodal plate reader (Biotek Synergy Neo) at an excitation wavelength of 535 nm and emission wavelength of 590 nm to obtain relative fluorescence units. Data analysis was done by subtracting the background fluorescence (only medium blank) value from each reading and then normalizing with the average of vehicle control (DMSO treated cells) to obtain percent survival/proliferation. […]

| IC50 (Panc-10.05) [µM] | IC50 (THP1) [µM] | IC50 (A549) [µM] | IC50 (ALK 5) [µM] | IC50 (HepG2) [µM] | Compound | IC50 (mouse splenocytes) [µM] |
| --- | --- | --- | --- | --- | --- | --- |
| 4.72 | 13.4 | > 30 | ≤ 0.5 | > 30 | CC(C)c1[nH]c(=O)c(-c2cc(Cl)ccc2F)cc1Nc1ccnc2[nH]ccc12 [Compound 1.50, 5-((1H-pyrrolo[2,3-b]pyridin-4-yl)amino)-3-(5-chloro-2-fluorophenyl)-6-isopropylpyridin-2(1H)-one] | > 30 |
| > 30 | > 30 | > 30 | ≤ 0.5 | > 30 | CC(=O)Nc1cc(Nc2cc(-c3cc(Cl)ccc3F)c(=O)[nH]c2C(C)C)ccn1 [Compound 1.48, N-(4-((5-(5-chloro-2-fluorophenyl)-2-isopropyl-6-oxo-1,6-dihydropyridin-3-yl)amino)pyridin-2-yl)acetamide] | > 30 |

Source: patent publication US20200247812A1 (Integral Biosciences Private Limited, priority 2018, published 2020)
